# Assay results reported in US20100184596A1, “METHOD FOR THE CONTROL OF WEEDS IN TURF” (SYNGENTA CROP PROTECTION, INC., priority 2007, published 2010).
# Experiments:
# Type in all cases: in vivo
# Clover = experiment: Selective post-emergence herbicidal action, field trial Champaign (Table B1.1); details: 22 days after application
# Experimental: (§1) The selectivity of the compound of formula I in turf (removal of grassy and broadleaf weeds) has been tested in turfgrass varieties selected from Kentucky bluegrass, tall fescue and perennial ryegrass and in […] selected from clover (an aggressive perennial weed) and dandelion (a weed of perennial horticultural crops and gardens which may also be a problem in some annual crops, particularly where reduced tillage is practiced).
# (§2) The trials were conducted in Champaign, Ill., U.S. (Table B1.1) and Hudson, N.Y., U.S. (Table B1.2) under field conditions. Turfgrasses were maintained at approximately a 2.5″ height, like a home lawn. Mixed turf and weed stands were present. The test compounds were applied with a CO2 pressurized backpack sprayer by spraying in the form of an aqueous suspension (prepared from a wettable powder) in a concentration of 210 to 280 g/ha. The plots were then mowed and irrigated as needed. After 22 and 28 days respectively, the test is visually evaluated (100%=total damage to plant; 0%=no damage to plant).
# Kentucky blue grass = experiment: as above; details: 22 days after application
# Experimental: as §1, §2
# Perennial ryegrass = experiment: as above; details: 22 days after application
# Experimental: as §1, §2
# Tall fescue = experiment: as above; details: 22 days after application
# Experimental: as §1, §2
# Bluegrass/fescue mix = experiment: Phytotoxicity via post emergence spray application (Table B2.7); details: 1 appl
# Experimental: (§3) The phytotoxicity of the compound of formula I to turfgrass species was tested. The compound was applied via post emergence spray to a range of warm and cool season turfgrass species at various rates and spray treatment treatment regimes. Percentage phytotoxicity assessments were taken at various timepoints.
# [1] = test system: St. Augustinegrass v. Delmar; experiment: Phytotoxicity via post emergence spray application (Table B2.8); details: 1 appl
# Experimental: as §3
# Zoysiagrass v. Empire = experiment: Phytotoxicity in combination with safeners, post emergence spray (Table B4.1); details: no safener, 100 g ai/ha
# Experimental: The phytotoxicity to turfgrass of the compound of formula I in combination with various safeners was tested. The combinations were applied by post emergence spray application. Percentage phytotoxicity assessments were taken at various timepoints. The safeners tested in these trials were cloquintocet-mexyl, cyprosulfamide, a compound of formula 2.3, and isoxadifen-ethyl.
# [2] = test system: Hydrocotyle sp. (dollarweed); experiment: Weed control via post emergence spray, in St. Augustinegrass v. Floratam (Table B5.3)
# Experimental: (§4) The weed control efficacy of the compound of formula I was tested. The compound was applied via post emergence spray to a range of weeds, at various rates and spray treatment treatment regimes. Percentage weed control assessments were taken at various timepoints.
# [3] = test system: Trifolium repens (white clover); experiment: Weed control via post emergence spray, in St. Augustinegrass v. Floratam (Table B5.4)
# Experimental: as §4
# [4] = test system: Taraxacum officinale (dandelion); experiment: Weed control via post emergence spray, in perennial ryegrass/fine fescue mix (Table B5.5)
# Experimental: as §4
# turfgrass = experiment: Example B2, conclusion in words; details: spray
# Experimental: as §3
# turfgrass weeds = experiment: Example B5, conclusion in words; details: post emergence spray
# Experimental: as §4
smiles,measurement,setting,value
"COCCOCc1nc(C(F)(F)F)ccc1C(=O)C1=C(O)C2CCC(C2)C1=O (stereo not shown) [Formula I, 4-Hydroxy-3-[2-(2-methoxyethoxymethyl)-6-trifluoromethylpyridine-3-carbonyl]-bicyclo[3.2.1]oct-3-en-2-one]",% damage,Clover; 210 g/ha,88%
same,% damage,Clover; 280 g/ha,92%
same,% damage,Kentucky blue grass; 210 g/ha,0%
same,% damage,Kentucky blue grass; 280 g/ha,0%
same,% damage,Perennial ryegrass; 210 g/ha,0%
same,% damage,Perennial ryegrass; 280 g/ha,0%
same,% damage,Tall fescue; 210 g/ha,0%
same,% damage,Tall fescue; 280 g/ha,0%
same,% phytotoxicity,"Bluegrass/fescue mix; 10 g ai/ha, 7 DAT",0.00%
same,% phytotoxicity,"Bluegrass/fescue mix; 10 g ai/ha, 14 DAT",0.00%
same,% phytotoxicity,"Bluegrass/fescue mix; 10 g ai/ha, 22 DAT",0.00%
same,% phytotoxicity,"Bluegrass/fescue mix; 10 g ai/ha, 29 DAT",0.00%
same,% phytotoxicity,"Bluegrass/fescue mix; 10 g ai/ha, 46 DAT",0.00%
same,% phytotoxicity,"Bluegrass/fescue mix; 20 g ai/ha, 7 DAT",0.00%
same,% phytotoxicity,"Bluegrass/fescue mix; 20 g ai/ha, 14 DAT",0.00%
same,% phytotoxicity,"Bluegrass/fescue mix; 20 g ai/ha, 22 DAT",0.00%
same,% phytotoxicity,"Bluegrass/fescue mix; 20 g ai/ha, 29 DAT",0.00%
same,% phytotoxicity,"Bluegrass/fescue mix; 20 g ai/ha, 46 DAT",0.00%
same,% phytotoxicity,"Bluegrass/fescue mix; 40 g ai/ha, 7 DAT",0.00%
same,% phytotoxicity,"Bluegrass/fescue mix; 40 g ai/ha, 14 DAT",0.00%
same,% phytotoxicity,"Bluegrass/fescue mix; 40 g ai/ha, 22 DAT",0.00%
same,% phytotoxicity,"Bluegrass/fescue mix; 40 g ai/ha, 29 DAT",0.00%
same,% phytotoxicity,"Bluegrass/fescue mix; 40 g ai/ha, 46 DAT",0.00%
same,% phytotoxicity,"Bluegrass/fescue mix; 80 g ai/ha, 7 DAT",0.00%
same,% phytotoxicity,"Bluegrass/fescue mix; 80 g ai/ha, 14 DAT",0.00%
same,% phytotoxicity,"Bluegrass/fescue mix; 80 g ai/ha, 22 DAT",0.00%
same,% phytotoxicity,"Bluegrass/fescue mix; 80 g ai/ha, 29 DAT",0.00%
same,% phytotoxicity,"Bluegrass/fescue mix; 80 g ai/ha, 46 DAT",0.00%
same,% phytotoxicity,"Bluegrass/fescue mix; 160 g ai/ha, 7 DAT",0.00%
same,% phytotoxicity,"Bluegrass/fescue mix; 160 g ai/ha, 14 DAT",2.50%
same,% phytotoxicity,"Bluegrass/fescue mix; 160 g ai/ha, 22 DAT",0.00%
same,% phytotoxicity,"Bluegrass/fescue mix; 160 g ai/ha, 29 DAT",0.00%
same,% phytotoxicity,"Bluegrass/fescue mix; 160 g ai/ha, 46 DAT",0.00%
same,% phytotoxicity,"[1]; 10 g ai/ha, 5 DAT",5.00%
same,% phytotoxicity,"[1]; 10 g ai/ha, 12 DAT",5.00%
same,% phytotoxicity,"[1]; 10 g ai/ha, 18 DAT",0.00%
same,% phytotoxicity,"[1]; 10 g ai/ha, 28 DAT",0.00%
same,% phytotoxicity,"[1]; 20 g ai/ha, 5 DAT",6.67%
same,% phytotoxicity,"[1]; 20 g ai/ha, 12 DAT",6.67%
same,% phytotoxicity,"[1]; 20 g ai/ha, 18 DAT",2.00%
same,% phytotoxicity,"[1]; 20 g ai/ha, 28 DAT",0.00%
same,% phytotoxicity,"[1]; 40 g ai/ha, 5 DAT",11.67%
same,% phytotoxicity,"[1]; 40 g ai/ha, 12 DAT",18.33%
same,% phytotoxicity,"[1]; 40 g ai/ha, 18 DAT",4.00%
same,% phytotoxicity,"[1]; 40 g ai/ha, 28 DAT",0.00%
same,% phytotoxicity,"[1]; 80 g ai/ha, 5 DAT",16.67%
same,% phytotoxicity,"[1]; 80 g ai/ha, 12 DAT",30.00%
same,% phytotoxicity,"[1]; 80 g ai/ha, 18 DAT",5.00%
same,% phytotoxicity,"[1]; 80 g ai/ha, 28 DAT",0.67%
same,% phytotoxicity,"[1]; 160 g ai/ha, 5 DAT",23.33%
same,% phytotoxicity,"[1]; 160 g ai/ha, 12 DAT",46.67%
same,% phytotoxicity,"[1]; 160 g ai/ha, 18 DAT",8.33%
same,% phytotoxicity,"[1]; 160 g ai/ha, 28 DAT",3.00%
same,% phytotoxicity,Zoysiagrass v. Empire; 6 DAT,11.70%
same,% phytotoxicity,Zoysiagrass v. Empire; 12 DAT,63.30%
same,% phytotoxicity,Zoysiagrass v. Empire; 19 DAT,68.30%
same,% phytotoxicity,Zoysiagrass v. Empire; 27 DAT,51.70%
same,% phytotoxicity,Zoysiagrass v. Empire; 35 DAT,40.00%
same,% control,"[2]; 1 appl, 140 g ai/ha, 5 DAT",10.00%
same,% control,"[2]; 1 appl, 140 g ai/ha, 13 DAT",60.00%
same,% control,"[2]; 1 appl, 140 g ai/ha, 21 DAT",50.00%
same,% control,"[2]; 1 appl, 280 g ai/ha, 5 DAT",15.00%
same,% control,"[2]; 1 appl, 280 g ai/ha, 13 DAT",57.50%
same,% control,"[2]; 1 appl, 280 g ai/ha, 21 DAT",60.00%
same,% control,"[2]; 2 appl, 140 g ai/ha, 5 DAT",15.00%
same,% control,"[2]; 2 appl, 140 g ai/ha, 13 DAT",55.00%
same,% control,"[2]; 2 appl, 140 g ai/ha, 21 DAT",52.50%
same,% control,"[2]; 2 appl, 280 g ai/ha, 5 DAT",20.00%
same,% control,"[2]; 2 appl, 280 g ai/ha, 13 DAT",65.00%
same,% control,"[2]; 2 appl, 280 g ai/ha, 21 DAT",62.50%
same,% control,"[3]; 1 appl, 140 g ai/ha, 5 DAT",21.67%
same,% control,"[3]; 1 appl, 140 g ai/ha, 13 DAT",86.67%
same,% control,"[3]; 1 appl, 140 g ai/ha, 21 DAT",85.00%
same,% control,"[3]; 1 appl, 140 g ai/ha, 27 DAT",88.33%
same,% control,"[3]; 1 appl, 140 g ai/ha, 35 DAT",78.33%
same,% control,"[3]; 1 appl, 140 g ai/ha, 42 DAT",76.67%
same,% control,"[3]; 1 appl, 140 g ai/ha, 61 DAT",76.67%
same,% control,"[3]; 1 appl, 280 g ai/ha, 5 DAT",25.00%
same,% control,"[3]; 1 appl, 280 g ai/ha, 13 DAT",91.67%
same,% control,"[3]; 1 appl, 280 g ai/ha, 21 DAT",90.00%
same,% control,"[3]; 1 appl, 280 g ai/ha, 27 DAT",93.33%
same,% control,"[3]; 1 appl, 280 g ai/ha, 35 DAT",91.67%
same,% control,"[3]; 1 appl, 280 g ai/ha, 42 DAT",90.00%
same,% control,"[3]; 1 appl, 280 g ai/ha, 61 DAT",90.00%
same,% control,"[3]; 2 appl, 140 g ai/ha, 5 DAT",25.00%
same,% control,"[3]; 2 appl, 140 g ai/ha, 13 DAT",88.33%
same,% control,"[3]; 2 appl, 140 g ai/ha, 21 DAT",86.67%
same,% control,"[3]; 2 appl, 140 g ai/ha, 27 DAT",91.67%
same,% control,"[3]; 2 appl, 140 g ai/ha, 35 DAT",96.00%
same,% control,"[3]; 2 appl, 140 g ai/ha, 42 DAT",96.67%
same,% control,"[3]; 2 appl, 140 g ai/ha, 61 DAT",100.00%
same,% control,"[3]; 2 appl, 280 g ai/ha, 5 DAT",26.67%
same,% control,"[3]; 2 appl, 280 g ai/ha, 13 DAT",95.00%
same,% control,"[3]; 2 appl, 280 g ai/ha, 21 DAT",93.33%
same,% control,"[3]; 2 appl, 280 g ai/ha, 27 DAT",95.00%
same,% control,"[3]; 2 appl, 280 g ai/ha, 35 DAT",99.33%
same,% control,"[3]; 2 appl, 280 g ai/ha, 42 DAT",100.00%
same,% control,"[3]; 2 appl, 280 g ai/ha, 61 DAT",100.00%
same,% control,"[4]; 1 appl, 140 g ai/ha, 14 DAT",32.50%
same,% control,"[4]; 1 appl, 140 g ai/ha, 21 DAT",87.50%
same,% control,"[4]; 1 appl, 280 g ai/ha, 14 DAT",37.50%
same,% control,"[4]; 1 appl, 280 g ai/ha, 21 DAT",90.00%
same,% control,"[4]; 2 appl, 140 g ai/ha, 14 DAT",47.50%
same,% control,"[4]; 2 appl, 140 g ai/ha, 21 DAT",87.50%
same,% control,"[4]; 2 appl, 280 g ai/ha, 14 DAT",41.25%
same,% control,"[4]; 2 appl, 280 g ai/ha, 21 DAT",90.00%
same,"phytotoxicity to turfgrass, in words",turfgrass; applied at low rates,levels of phytotoxicity to turfgrass are acceptable
same,"phytotoxicity by turfgrass type, in words",turfgrass; cool season versus warm season species,lower on cool season turfgrass species
same,"weed control, in words",turfgrass weeds,"effective at controlling a variety of turfgrass weeds, even when applied at low rates"
